Reference: PubChem BioAssay AID248 (DTP/NCI, 2004)
Several values for one entry are separate records, joined by “and”; a condition that tells them apart may be missing. Equal entries are not always repeated. Toxic doses and inconclusive results are not listed. Cut-off read from the data, not from the text of the source: active = T/C of 150% or more; inactive = T/C below 125%. Square brackets hold non-standard residues; d marks the D form. Peptide text beside a SMILES is read from it. * marks the point of attachment. ξ: configuration not given here. ξW = NC(Cc1c[nH]c2ccccc12)C(=O)O; Cbz = O=C(OCc1ccccc1)*

Test system: L1210 leukemia ip in BDF1 mice, survival T/C
Assay: NCI In Vivo Anticancer Drug Screen. Data for tumor model L1210 Leukemia (intraperitoneal) in B6D2F1 (BDF1) mice
Settings: endpoint: mean survival time, higher = longer survival
Procedure, shortened: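 Antitumor effect is assessed in tumor-bearing animals. Survival in the compound arm is compared with a vehicle-dosed control arm and expressed as their quotient.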

[1] = dose: 100.0 mg/kg/injection, schedule: Q01DX009 (ip), vehicle: Klucel (hydroxypropylcellulose) (HPC)
[2] = dose: 200.0 mg/kg/injection, schedule: Q01DX009 (ip), vehicle: Klucel (hydroxypropylcellulose) (HPC)
[3] = dose: 100.0 mg/kg/injection, schedule: Q04DX003 (ip), vehicle: Klucel (hydroxypropylcellulose) (HPC)
[4] = dose: 200.0 mg/kg/injection, schedule: Q04DX003 (ip), vehicle: Klucel (hydroxypropylcellulose) (HPC)
[5] = dose: 400.0 mg/kg/injection, schedule: Q04DX003 (ip), vehicle: Klucel (hydroxypropylcellulose) (HPC)
[6] = dose: 100.0 mg/kg/injection, schedule: Q01DX001 (ip), vehicle: saline
[7] = dose: 200.0 mg/kg/injection, schedule: Q01DX001 (ip), vehicle: saline
[8] = dose: 100.0 mg/kg/injection, schedule: Q01DX001 (ip), vehicle: carboxymethylcellulose (CMC)
[9] = dose: 200.0 mg/kg/injection, schedule: Q01DX001 (ip), vehicle: carboxymethylcellulose (CMC)
[10] = dose: 400.0 mg/kg/injection, schedule: Q01DX001 (ip), vehicle: carboxymethylcellulose (CMC)
[11] = dose: 100.0 mg/kg/injection, schedule: Q01DX001 (ip), vehicle: saline with Tween-80
[12] = dose: 200.0 mg/kg/injection, schedule: Q01DX001 (ip), vehicle: saline with Tween-80
[13] = dose: 400.0 mg/kg/injection, schedule: Q01DX001 (ip), vehicle: saline with Tween-80
[14] = dose: 100.0 mg/kg/injection, schedule: Q01DX009 (ip), vehicle: saline with Tween-80
[15] = dose: 100.0 mg/kg/injection, schedule: Q04DX003 (ip), vehicle: saline with Tween-80
[16] = dose: 200.0 mg/kg/injection, schedule: Q01DX009 (ip), vehicle: saline with Tween-80
[17] = dose: 200.0 mg/kg/injection, schedule: Q04DX003 (ip), vehicle: saline with Tween-80
[18] = dose: 400.0 mg/kg/injection, schedule: Q04DX003 (ip), vehicle: saline with Tween-80
[19] = dose: 400.0 mg/kg/injection, schedule: Q01DX009 (ip), vehicle: Klucel (hydroxypropylcellulose) (HPC)
[20] = dose: 50.0 mg/kg/injection, schedule: Q01DX001 (ip), vehicle: carboxymethylcellulose (CMC)
[21] = dose: 400.0 mg/kg/injection, schedule: Q01DX001 (ip), vehicle: saline

Measured: T/C

O=C(O)C1=CCCc2ccc3ccccc3c21
inactive: dose: 75.0 mg/kg/injection, schedule: Q04DX003 (ip), vehicle: saline 100 % of control | [1] 96 % of control | dose: 150.0 mg/kg/injection, schedule: Q04DX003 (ip), vehicle: saline 100 % of control | [2] 102 % of control | dose: 300.0 mg/kg/injection, schedule: Q04DX003 (ip), vehicle: saline 97 % of control

O=NN(CCCl)C(=O)N(C1CCCCC1)C1CCCCC1
active: dose: 600.0 mg/kg/injection, schedule: Q01DX009 (ip), vehicle: carboxymethylcellulose (CMC) 166 % of control
inactive: dose: 177.0 mg/kg/injection, schedule: Q01DX009 (ip), vehicle: carboxymethylcellulose (CMC) 121 % of control | dose: 400.0 mg/kg/injection, schedule: Q01DX009 (ip), vehicle: carboxymethylcellulose (CMC) 117 % of control

COC(=O)Nc1cccc2c1C=CC(C#N)N2C(=O)OC (centres undefined)
inactive: [1] 93 % of control | [3] 87 % of control | [2] 100 % of control | [4] 91 % of control | [5] 100 % of control

O=CNc1ccccc1Cc1ccccc1
inactive: [6] 101 % of control | [7] 107 % of control

Cc1cc(NS(=O)(=O)c2ccc(N=Nc3c(N)nc(N)nc3N)cc2)nc(C)n1
inactive: [8] 103 % of control | [9] 97 % of control | [10] 105 % of control

Nc1cnccc1NCCN1CCN(c2ccccc2)CC1
inactive: [6] 98 % of control

CC(=O)c1c(C)[nH]c(C(=O)O)c1C
inactive: [11] 103 % of control | [12] 100 % of control | [13] 90 % of control

O=C(NCCO)Nc1cccc(Cl)c1
inactive: dose: 100.0 mg/kg/injection, schedule: Q04DX002 (ip), vehicle: saline 100 % of control | dose: 200.0 mg/kg/injection, schedule: Q04DX002 (ip), vehicle: saline 100 % of control | dose: 400.0 mg/kg/injection, schedule: Q04DX002 (ip), vehicle: saline 111 % of control

CCCCCCCCCCCS(=O)(=O)C(CCOS(C)(=O)=O)COS(C)(=O)=O (centres undefined)
inactive: [1] 93 % of control | [3] 100 % of control | [2] 95 % of control | [4] 98 % of control | [5] 96 % of control

COc1ccc(OCC(=O)O)c(C=O)c1
inactive: [14] 95 % of control | [15] 115 % of control | [16] 93 % of control | [17] 96 % of control | dose: 400.0 mg/kg/injection, schedule: Q01DX009 (ip), vehicle: saline with Tween-80 91 % of control | [18] 106 % of control

O=C(OCC#CC#CCOC(=O)c1ccccc1)c1ccccc1
inactive: [1] 102 % of control | [3] 94 % of control | [2] 95 % of control | [4] 96 % of control | [19] 104 % of control | [5] 89 % of control

C=CCc1ccc(OC(=O)Nc2ccccc2C)c(OC)c1
inactive: [1] 96 % of control | [2] 95 % of control

CCOP(=O)(Nc1ccc2c(c1)C(=O)c1ccccc1-2)OCC
inactive: [20] 97 % of control | [8] 103 % of control | [9] 100 % of control | [10] 103 % of control

COC(=O)C(Cc1c[nH]c2ccccc12)NC(=O)CNC(=O)CNC(=O)OCc1ccccc1 (stereo not drawn) (Cbz-Gly-Gly-[ξW]-OMe)
inactive: [15] 105 % of control | [17] 101 % of control | [18] 100 % of control

CC(NC(=O)OCc1ccccc1)C(=O)NC1C(CO)OC(n2cnc3c(N)ncnc32)C1O (centres undefined)
inactive: [6] 94 % of control | [7] 103 % of control | [21] 100 % of control

c1nc(SCC2CO2)c2ncn(CC3CO3)c2n1 (centres undefined)
inactive: [6] 107 % of control | [7] 101 % of control | [21] 97 % of control

O=S(=O)(Nc1ccc(C(F)(F)F)cc1)c1ccc(C(F)(F)F)cc1
inactive: [3] 95 % of control | [4] 92 % of control

CCN(CC)c1cccc(N)c1
inactive: dose: 25.0 mg/kg/injection, schedule: Q01DX009 (sc), vehicle: olive oil, sesame oil, peanut oil 100 % of control | dose: 50.0 mg/kg/injection, schedule: Q01DX009 (sc), vehicle: olive oil, sesame oil, peanut oil 104 % of control | dose: 100.0 mg/kg/injection, schedule: Q01DX009 (sc), vehicle: olive oil, sesame oil, peanut oil 114 % of control | dose: 100.0 mg/kg/injection, schedule: Q04DX003 (sc), vehicle: olive oil, sesame oil, peanut oil 110 % of control

COc1ccc(OC)c(/C=N/NC(=O)c2ccccc2Cl)c1
inactive: dose: 50.0 mg/kg/injection, schedule: Q01DX009 (ip), vehicle: saline with Tween-80 91 % of control | [14] 97 % of control | [16] 94 % of control

CC(=O)NC1C(OC(C)=O)OC2COCOC2C1OC(C)=O (centres undefined)
inactive: [11] 97 % of control | [12] 97 % of control | [13] 105 % of control

C#CC1(OC(=O)Nc2cc3ccccc3o2)CCCCC1
inactive: [15] 90 % of control | [17] 95 % of control | [18] 92 % of control

NS(N)(=O)=O
inactive: [20] 88 % of control | [8] 95 % of control | [9] 98 % of control | [10] 98 % of control

Cc1cc(C)cc(OCC(=O)O)c1
inactive: [3] 95 % of control | [4] 90 % of control | [5] 106 % of control

CNC(C#N)Cc1ccccc1 (centres undefined)
inactive: dose: 2.5 mg/kg/injection, schedule: Q01DX009 (ip), vehicle: saline 96 % of control | dose: 5.0 mg/kg/injection, schedule: Q01DX009 (ip), vehicle: saline 98 % of control | dose: 10.0 mg/kg/injection, schedule: Q01DX009 (ip), vehicle: saline 104 % of control | dose: 20.0 mg/kg/injection, schedule: Q01DX009 (ip), vehicle: saline 101 % of control

CC(Cl)CN(CC(C)Cl)C(=O)Oc1ccc([N+](=O)[O-])cc1 (centres undefined)
inactive: [1] 98 % of control | [2] 94 % of control | [19] 98 % of control

O=C(O)c1ccccc1-c1ccccc1C(=O)Nc1ccc2c(c1)C(=O)c1ccccc1-2
inactive: [15] 104 % of control | [17] 101 % of control | [18] 98 % of control

CC1C(c2ccccc2)N1P(=O)(c1ccccc1)c1ccccc1 (centres undefined)
inactive: dose: 100.0 mg/kg/injection, schedule: Q04DX003 (sc), vehicle: carboxymethylcellulose (CMC) 102 % of control | dose: 200.0 mg/kg/injection, schedule: Q04DX003 (sc), vehicle: carboxymethylcellulose (CMC) 104 % of control | dose: 400.0 mg/kg/injection, schedule: Q04DX003 (sc), vehicle: carboxymethylcellulose (CMC) 98 % of control

OCC(O)C(O)C(O)C(O)C(c1ccc(Cl)cc1)c1ccc(Cl)cc1 (centres undefined)
inactive: dose: 50.0 mg/kg/injection, schedule: Q01DX001 (ip), vehicle: saline 101 % of control and 98 % of control | [6] 101 % of control and 93 % of control and 88 % of control | [7] 95 % of control and 91 % of control | [21] 95 % of control and 96 % of control

Cc1c(I)sc(I)c1I
inactive: [8] 94 % of control | [9] 94 % of control | [10] 100 % of control
